Test [1] addresses muscarinic binding site. To be noted: rat cerebral cortex tissue, radiolabeled quinuclidinyl benzilate, read-out: IC₅₀nM RQNB.
The target of test [2] is muscarinic binding site. The test is described as follows: RCMD screening assay: inhibition of binding of radiolabeled cis-methyldioxolane (muscarinic agonist) to rat cerebral cortex tissue. The conditions noted are these: read-out: IC₅nM RCMD. On the procedure: Similarly, in the RCMD screening assay, described more fully by T. W. Vickeroy, et al, 229(3):747 (1984), rat cerebral cortex tissue was treated with radiolabeled cis-methyldioxolane, a known muscarinic binding site agonist. The concentrations of test compounds required to inhibit 50% of the binding of this muscarinic agonist were then determined. […]

Where a name gives a salt, the structure may show the parent alone. Read-outs that look alike come from different tables or passages of the source.

Consider `c1ccc(CON=C2CN3CCC2C3)cc1` (centres unmarked) [Example 5, 1-Azabicyclo[2.2.1]-heptan-3-one, O-(phenylmethyl)oxime hydrochloride], for which the IC50 in test [1] is 5.95 µM; in test [2], 133 nM.

For the compound `CC(C)ON=C1CN2CCC1C2` (centres unmarked) [Example 7, 1-Azabicyclo[2.2.1]-heptan-3-one, O-(1-methylethyl)oxime hydrochloride], the IC50 in test [1] is 2.03 µM; in test [2], 46 nM.

For the compound `N#CCON=C1CN2CCC1C2` (centres unmarked) [Example 27, {[(1-Azabicyclo[2.2.1]-heptan-3-ylidene)amino]-oxy}acetonitrile hydrochloride], the IC50 in test [1] stood at 8.82 µM; in test [2], 116 nM.

`CON=C1CN2CCC1C2` (centres unmarked) [Example 3, 1-Azabicyclo[2.2.1]heptan-3-one, O-methyloxime hydrochloride]: the IC50 in test [1] stood at 24.6 µM; in test [2], 18.2 nM.

Regarding `C=CC=CCON=C1CN2CCC1C2` (single isomer, unassigned) [28 (Isomer B), 1-Azabicyclo[2.2.1]-heptan-3-one, O-(2,4-pentadienyl)oxime hydrochloride], the IC50 was 9.65 µM in test [1] (hydrochloride) and 256 nM in test [2] (hydrochloride).

Regarding `C=CCON=C1CN2CCC1C2` (centres unmarked) [Example 8, 1-Azabicyclo[2.2.1]-heptan-3-one, O-(2-propenyl)oxime oxalate], the IC50 in test [1] was 4.78 µM; in test [2], 53 nM.

On to `CCON=C1CN2CCC1C2` (centres unmarked) [Example 2, 1-Azabicyclo[2.2.1]hept-3-one, O-ethyloxime hydrochloride], for which the IC50 in test [1] was determined as 3.11 µM; in test [2], 12.5 nM.

In the case of `CCCON=C1CN2CCC1C2` (centres unmarked) [Example 6, 1-Azabicyclo[2.2.1]-heptan-3-one, O-propyloxime hydrochloride], the IC50 is 3.85 µM in test [1] and 120 nM in test [2].

`C=CC=CCON=C1CN2CCC1C2` (single isomer, unassigned) [28 (Isomer A), 1-Azabicyclo[2.2.1]-heptan-3-one, O-(2,4-pentadienyl)oxime hydrochloride]: the results for the IC50 in test [1] (hydrochloride) and in test [2] (hydrochloride) were 0.434 µM and 12.9 nM, respectively.

For `C#CCON=C1CN2CCC1C2` (centres unmarked) [Example 4, 1-Azabicyclo[2.2.1]-heptan-3-one, O-(2-propynyl)oxime hydrochloride], the IC50 is 2.97 µM in test [1] and 3.5 nM in test [2].
